Key:
Format in all cases: physicochemical
[1] = Stability of compound 1 in vehicle solution, 55° C. storage, HPLC; details: for Concentration of compound 1 after 55° C. storage, day 10: 55° C. for 10 days; for Concentration of compound 1 after 55° C. storage, day 10 / Concentration of compound 1, day 0: percentage based on the theoretical amount; for Concentration of compound 1, day 0: before storage
Protocol: Compound 1 was dissolved in a vehicle shown in table 1 below to give 240 μg/g solution (sample). The precise concentration of Compound 1 in the solution was determined by means of HPLC (day 0). Then, the solution was put in a hard grass container and kept at 55° C. for 10 days, and then the precise concentration of the compound 1 in the solution was determined by means of HPLC (day 10).
The determination of the concentration of the compound in the sample was carried out as follows. About 0.2 g of the sample was mixed with exactly 2 ml of internal standard solution and then with a dissolving agent shown in Table 1 to give 5 mL of sample solution. About 12 mg of the reference standard compound 1 was weighted precisely and added with acetonitrile to give exactly 100 ml solution. Exactly 0.8 ml of the solution was obtained and added with exactly 4 ml of the internal standard solution, and then added with the dissolving agent to give 10 ml of standard solution.
The fluorescent labeling agent was added to the respective solution, stirred and stood at room temperature. Then, the respective solution in an amount that theoretically gives 3.6 ng of compound 1 was loaded on the column and analyzed under the condition as follows:
Column: 5 mm×25 cm stainless steel column packed with octadecylsilane treated silica gel for HPLC (5 μm)
Mobile phase: mixture of acetonitrile HPLC grade: methanol HPLC grade: ammonium acetate (0.05 mol/L)

[2] = Stability of compound 1 in medium chain fatty acid triglyceride kept with gelatin/glycerin piece at 40° C.; details: 60 μg/g in medium chain fatty acid triglyceride with gelatin piece (gelatin 100, glycerin 35 parts by weight), sealed container, 21 days, on the basis of theoretical amount
Protocol: One hundred (100) parts by weight of gelatin (Type A, high bloom, SKW Biosystems #195F) and 35 parts by weight of glycerin, a plasticizer, were mixed in water and dried to give gelatin piece whose water content was about 4%. Compound 1 was dissolved in medium chain fatty acid triglyceride (USP/NF grade) to give a liquid mixture comprising 60 μg/g of the compound. 0.5 g of the liquid mixture and 0.5 g of gelatin piece were put together in a sealed container and kept at 40° C. for 21 days. The concentration of compound 1 contained in the liquid mixture was determined in the same manner as Example 1. As a result, the amount of the compound 1 at day 21 was 97.0% on the basis of a theoretical amount (60 μg/g).

[3] = Stability of soft gelatin capsule of compound 1 at 40° C.; details: fill 240 μg/g in medium chain fatty acid triglyceride; for conc. (% of Initial) 40° C. 1 mo: 1 month; for conc. (% of Initial) 40° C. 2 mo: 2 months
Protocol: Glycerin in an amount shown in Table 3 was added in an appropriate amount of water, stirred and heated. Then, gelatin 100 parts by weight was added thereto to give gelatin solution. Compound 1 was dissolved in medium chain fatty acid triglyceride (USP/NF grade) to give a fill solution containing 240 μg/g of compound 1. The gelatin solution and the fill solution were loaded on capsule forming and filling machine to give capsule containing the fill solution, and dried to give soft gelatin capsule.
The capsule was put in a sealed container and kept at 40° C. for 2 months. The concentration of compound 1 in the fill solution contained in the capsule was determined after 1 and 2 months storage in the same manner as EXAMPLE 1.

[4] = vehicle glycerin, 240 μg/g solution
[5] = vehicle isopropyl palmitate, 240 μg/g solution
[6] = vehicle linolenic acid (comparative), 240 μg/g
[7] = vehicle oleic acid (comparative), 240 μg/g
[8] = vehicle polyethylene glycol 400, 240 μg/g solution
[9] = vehicle propylene glycol ester of fatty acid, 240 μg/g solution
[10] = vehicle propylene glycol, 240 μg/g solution
[11] = soft gelatin capsule shell gelatin 100, glycerin 45 parts by weight
[12] = soft gelatin capsule shell gelatin 100, glycerin 55 parts by weight

For `CCCCC(F)(F)[C@@]1(O)CC[C@H]2[C@@H](CC(=O)[C@@H]2CCCCCCC(=O)O)O1` [Compound 1, 7-[(2R,4aR,5R,7aR)-2-(1,1-difluoropentyl)-2-hydroxy-6-oxooctahydrocyclopenta[b]pyran-5-yl]heptanoic acid], the “stability of compound 1” value ([1]; admixing with a polyol and/or a fatty acid ester other than glyceride, versus comparative vehicles) was “significantly improved”, the “Concentration of compound 1 after 55° C. storage, day 10” value (“Concentration … day 10” for short) [1, 4] was 78.0% and the “Concentration of compound 1, day 0” value [1, 4] was 92.0%. For the same molecule, the “Concentration … day 10” value ([1]; vehicle hydrogenated maltose starch syrup (comparative), 240 μg/g) was 24.4%, the “Concentration … day 10” value [1, 5] was 99.1% and the “Concentration of compound 1, day 0” value [1, 5] was 98.9%. For the same molecule, the “Concentration … day 10” value [1, 6] was 33.1%, the “Concentration of compound 1, day 0” value [1, 6] was 74.8% and the “Concentration … day 10” value [1, 7] was 57.3%. For the same molecule, the “Concentration of compound 1, day 0” value [1, 7] was 101.7%, the “Concentration … day 10” value [1, 8] was 90.1% and the “Concentration of compound 1, day 0” value [1, 8] was 98.2%. For the same molecule, the “Concentration … day 10” value [1, 9] was 89.0%, the “Concentration of compound 1, day 0” value [1, 9] was 99.9% and the “Concentration … day 10” value [1, 10] was 88.6%. The “Concentration of compound 1, day 0” value [1, 10] was 97.8%, the “Concentration … day 10” value ([1]; vehicle sugar alcohol solution derived from corn starch (comparative), 240 μg/g) was 26.3% and the “amount of the compound 1 at day 21” value [2] was 97.0%. The “conc. (% of Initial) 40° C. 1 mo” value [3, 11] was 100.0%, the “conc. (% of Initial) 40° C. 2 mo” value [3, 11] was 98.7% and the “conc. (% of Initial) 40° C. 1 mo” value [3, 12] was 97.7%. For the same molecule, the “conc. (% of Initial) 40° C. 2 mo” value [3, 12] was 94.0%.

Source: patent publication US8669284B2, “Pharmaceutical composition comprising a bi-cyclic compound and method for stabilizing the bi-cyclic compound” (Sucampo AG, priority 2006, dated 2014)
